Data: article PMC7897990, “TriTOX: A novel Trichomonas vaginalis assay platform for high-throughput screening of compound libraries” (International Journal for Parasitology: Drugs and Drug …, 2021)
Like-named read-outs stand apart in the source and are kept apart here. Positions of bridges follow the written chain, without caps; N, C: chain ends. Non-standard residues stand in square brackets, D forms with d. Residues, ends and D or L forms follow the SMILES beside them. *: point of attachment. NMePhe(4-NMe2) = CN[C@@H](Cc1ccc(N(C)C)cc1)C(=O)O; Pip(4-oxo) = O=C1CCN[C@H](C(=O)O)C1; Picolinoyl(3-OH) = O=C(c1ncccc1O)*; Phg = N[C@H](C(=O)O)c1ccccc1; dAbu = CC[C@@H](N)C(=O)O

Columns and labels:
[1] = system: Trichomonas vaginalis G3 trophozoites; conditions: for T.vaginalis_Absorbance_Rep1: replicate 1, raw absorbance; for T.vaginalis_Absorbance_Rep2: replicate 2, raw absorbance
[2] = system: nontumorigenic neonatal foreskin fibroblast (NFF) cell line
[3] = parasite screen at 1 µg/mL, replicate 1
[4] = parasite screen at 1 µg/mL, replicate 2
[5] = NFF_NS1 screen at 5 µg/mL, NFF cells
[6] = HTS replicate 1, parasite screen 1 µg/mL
[7] = HTS replicate 2, parasite screen 1 µg/mL
[8] = replicate 1, parasite screen at 1 µg/mL
[9] = replicate 2, parasite screen at 1 µg/mL
[10] = HTS, parasite screen at 1 µg/mL, replicate 1
[11] = HTS, parasite screen at 1 µg/mL, replicate 2
[12] = HTS, parasite screen at 1 µg/mL

Row | SMILES | T.vaginalis_%inb_Rep1 [1, 6] [%] | T.vaginalis_%inb_Rep2 [1, 7] [%] | T.vaginalis_%inb_Rep1 [1, 10] [%] | T.vaginalis_%inb_Rep2 [1, 11] [%] | also measured
1 | CC1=C[C@H]2O[C@@H]3[C@H](O)[C@@H](O)[C@](C)([C@@]2(CO)C[C@@H]1OC(=O)CC(C)C)[C@]31CO1 [BIA-T1934] | – | – | – | – | T.vaginalis_%inb_Rep1 [1, 3]: 10.70%; T.vaginalis_%inb_Rep2 [1, 4]: 12.37%; NFF_Activity [2, 5]: I (otherwise these were reported as inactive (I))
2 | CCCCCCCCCCCCCCCCCC(=O)N[C@H]1CCOC1=O [Octadecanoyl-L-homoserine lactone] | 12.02 | 13.47 | – | – | NFF_Activity ([2]; NFF fibroblasts, single concentration 5 µg/mL): I (otherwise these were reported as inactive (I))
3 | CC[C@H](C)[C@H]1O[C@]2(CC[C@@H]1C)C[C@@H]1C[C@@H](C/C=C(\C)[C@@H](O[C@H]3C[C@H](OC)[C@@H](O[C@H]4C[C@H](OC)[C@@H](O)[C@H](C)O4)[C@H](C)O3)[C@@H](C)/C=C/C=C3\CO[C@@H]4[C@H](O)C(C)=C[C@@H](C(=O)O1)[C@]34O)O2 [BIA-I1119] | – | – | – | – | T.vaginalis_%inb_Rep1 [1, 8]: 13.79%; T.vaginalis_%inb_Rep2 [1, 9]: 12.96%; NFF_Activity ([2]; NFF cells, screen at 5 µg/mL): I (otherwise these were reported as inactive (I))
4 | Cc1cc2nc3c(=O)[nH]c(=O)nc-3n(C[C@H](O)[C@H](O)[C@H](O)CO)c2cc1N(C)C [BIA-R1535] | – | – | – | – | T.vaginalis_%inb_Rep1 [1, 3]: 11.33%; T.vaginalis_%inb_Rep2 [1, 4]: 14.32%; NFF_Activity [2, 5]: I (otherwise these were reported as inactive (I))
5 | CC[C@H]1NC(=O)[C@@H](NC(=O)c2ncccc2O)[C@@H](C)OC(=O)[C@H](c2ccccc2)NC(=O)[C@@H]2CC(=O)CCN2C(=O)[C@H](Cc2ccc(N(C)C)cc2)N(C)C(=O)[C@@H]2CCCN2C1=O [Virginiamycin B] ({Picolinoyl(3-OH)}-T[dAbu]P[NMePhe(4-NMe2)][Pip(4-oxo)][Phg]; ester 1-C) | – | – | 8.39 | 11.09 | –
6 | COc1c(OC)c(-c2c[nH]c3ccc(O)cc23)c(OC)c(OC)c1-c1c[nH]c2ccccc12 [Petromurin C] | 7.91 | 12.64 | – | – | –
7 | COc1ccc(/C=C/C(=O)O)cc1O [BIA-I1729] | – | – | – | – | T.vaginalis_%inb_Rep1 [1, 8]: 11.16%; T.vaginalis_%inb_Rep2 [1, 9]: 13.98%
8 | COC1=C(OC)C(=O)C(C)C(C)C1=O (stereo not drawn) [Gliorosein] | – | – | 13.24 | 15.33 | T.vaginalis_Absorbance_Rep1 [1, 12]: 0.963; T.vaginalis_Absorbance_Rep2 [1, 12]: 0.874
9 | CO[C@H]1/C=C\C=C(/C)C(=O)NC2=CC(=O)C(NCCN(C)C)=C(C[C@@H](C)C[C@H](OC)[C@H](O)[C@@H](C)/C=C(\C)[C@@H]1OC(N)=O)C2=O [17-DAAG, 17-dimethylaminoethylamino-17-demethoxygeldanamycin, reference compound] | – | – | – | – | T. vaginalis HTS result in words ([1]; 384-well, 25 μL, 10,000 cells/mL, 48 h, biological duplicates, hit = >50% inhibition): partial hits
10 | COc1cc(O)c2c(=O)oc3c(O)c(OC)cc(C)c3c2c1 [Graphislactone A] | – | – | 13.44 | 16.48 | T.vaginalis_Absorbance_Rep1 [1, 12]: 0.967; T.vaginalis_Absorbance_Rep2 [1, 12]: 0.892
11 | COc1cc(O)c2c(c1)/C=C/CC(O)C(O)C(=O)/C=C/CC(C)OC2=O (stereo not drawn) [Oxozeaenol, (5E)-7-] | 8.42 | 13.66 | – | – | –
12 | CCC/C=C/C=C/[C@@H]1C[C@@H](O)[C@@H](O)C(=O)[C@H]1CO [Palitantin] | 13.59 | 14.56 | – | – | –
13 | NC(=O)c1cccc2nc3ccccc3nc12 [Oxychloroaphine] | 11.41 | 13.92 | – | – | –
14 | C/C=C(\C)c1cc(O)c(C)c2c1Oc1cc(O)cc(C)c1C(=O)O2 [Unguinol] | – | – | 8.70 | 4.39 | –
15 | C=C1CC[C@H]2C(C)(C)CCC[C@]2(C)[C@H]1C[C@@]12C[C@H]3C(=O)N4CCC=C4C(=O)N3[C@@H]1Nc1ccccc12 [Drimentine B] | – | – | 15.40 | 15.26 | T.vaginalis_Absorbance_Rep1 [1, 12]: 0.995; T.vaginalis_Absorbance_Rep2 [1, 12]: 0.831
